From patent US7807703B2, “Substituted aryl ketones” (Bayer CropScience AG, priority 2002, dated 2010)

Test system: weeds
Assay: Pre-emergence test (Example A), herbicidal activity
Assay type: in vivo
Conditions: soil sprayed 24 hours after sowing, rated after three weeks
Procedure: (§1) • Solvent: 5 parts by weight of acetone • Emulsifier: 1 part by weight of alkylaryl polyglycol ether
(§2) To produce a suitable preparation of active compound, 1 part by weight of active compound is mixed with the stated amount of solvent, the stated amount of emulsifier is added and the concentrate is diluted with water to the desired concentration.
Seeds of the test plants are sown in normal soil. After 24 hours, the soil is sprayed with the preparation of active compound such that the particular amount of active compound desired is applied per unit area. The concentration of active compound in the spray liquor is chosen such that the particular amount of active compound desired is applied in 1000 liters of water per hectare.
After three weeks, the degree of damage to the plants is rated in % damage in comparison to the development of the untreated control. The figures denote: • 0%=no effect (like untreated control) • 100%=total destruction

Structure (SMILES)	activity against weeds (degree of damage)
CCn1ncc(C(=O)c2ccc(Cl)c(OCCNS(=O)(=O)CC)c2Cl)c1O [Example 2, 4-[2,4-dichloro-3-(N-ethylsulphonylaminoethoxy)benzoyl]-1-ethyl-5-hydroxypyrazole]	strong activity
CCS(=O)(=O)NCCOc1c(Cl)ccc(C(=O)C2C(=O)CCCC2=O)c1Cl [Example 4]	strong activity
CS(=O)(=O)NCCOc1c(Cl)ccc(C(=O)C2C(=O)CCCC2=O)c1Cl [Example 5]	strong activity
CCn1ncc(C(=O)c2ccc(Cl)c(OCCNS(C)(=O)=O)c2Cl)c1O [Example 6]	strong activity

Test system: weeds
Assay: Post-emergence test (Example B), herbicidal activity
Assay type: in vivo
Conditions: test plants of 5-15 cm sprayed, rated after three weeks
Procedure: as §1, §2
Test plants of a height of 5-15 cm are sprayed with the preparation of active compound such that the particular amounts of active compound desired are applied per unit area. The concentration of the spray liquor is chosen such that the particular amounts of active compound desired are applied in 1000 l of water/ha.
After three weeks, the degree of damage to the plants is rated in % damage in comparison to the development of the untreated control.
The figures denote: • 0%=no effect (like untreated control) • 100%=total destruction

Structure (SMILES)	activity against weeds (degree of damage)
CCn1ncc(C(=O)c2ccc(Cl)c(OCCNS(=O)(=O)CC)c2Cl)c1O [Example 2, 4-[2,4-dichloro-3-(N-ethylsulphonylaminoethoxy)benzoyl]-1-ethyl-5-hydroxypyrazole]	strong activity
CCn1ncc(C(=O)c2ccc(Cl)c(OCCNS(=O)(=O)c3ccc(C)cc3)c2Cl)c1O [Example 3]	strong activity
CCS(=O)(=O)NCCOc1c(Cl)ccc(C(=O)C2C(=O)CCCC2=O)c1Cl [Example 4]	strong activity
CS(=O)(=O)NCCOc1c(Cl)ccc(C(=O)C2C(=O)CCCC2=O)c1Cl [Example 5]	strong activity

Test system: not listed separately
Assay: log P determination by reversed-phase HPLC (EEC Directive 79/831 Annex V.A8; acidic or neutral mobile phase)
Assay type: physicochemical
Conditions: HPLC reversed-phase C18, 43° C.; acidic range: 0.1% aqueous phosphoric acid, acetonitrile gradient (marked a))
How it was run: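 Values marked a) used an acidic eluent of 0.1% aqueous phosphoric acid, those marked b) a neutral eluent of 0.01 molar phosphate buffer, each with acetonitrile rising linearly from 10% to 90%. Column C18 at 43° C, following EEC Directive 79/831 Annex V.A8.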

Structure (SMILES)	logP
CCn1ncc(C(=O)c2ccc(Cl)c(OCCNS(=O)(=O)c3ccc(C)cc3)c2Cl)c1O [Example 3]	(I-2) logP = 2.74^a)
CCS(=O)(=O)NCCOc1c(Cl)ccc(C(=O)C2C(=O)CCCC2=O)c1Cl [Example 4]	logP = 2.36^a)
CS(=O)(=O)NCCOc1c(Cl)ccc(C(=O)C2C(=O)CCCC2=O)c1Cl [Example 5]	logP = 2.16^a)
CCn1ncc(C(=O)c2ccc(Cl)c(OCCNS(C)(=O)=O)c2Cl)c1O [Example 6]	logP = 1.65^a)

Same assay, conditions: HPLC, reversed-phase C 18, 43° C.; acidic range: 0.1% aqueous phosphoric acid, acetonitrile (marked a) or acidic)

Structure (SMILES)	log P (acidic)
COC(=O)c1ccc(S(C)(=O)=O)c(CN(Cc2ccccn2)OC)c1Cl [VIII-41]	logPacidic = 1.17
COC(=O)c1ccc(S(C)(=O)=O)c(CN(Cc2cccnc2)OC)c1Cl [VIII-42]	logPacidic = 1.16
CCON(C)Cc1c(S(C)(=O)=O)ccc(C(=O)OC)c1Cl [VIII-43]	logPacidic = 2.64
CCON(Cc1c(S(C)(=O)=O)ccc(C(=O)OC)c1Cl)C(C)C [VIII-44]	logPacidic = 3.52
COC(=O)c1ccc(S(C)(=O)=O)c(CN(C)OC(C)C)c1Cl [VIII-45]	logPacicic = 2.97
CCN(Cc1c(S(C)(=O)=O)ccc(C(=O)OC)c1Cl)OC(C)C [VIII-46]	logPacidic = 3.39
COC(=O)c1ccc(S(C)(=O)=O)c(CN(OC(C)C)C(C)C)c1Cl [VIII-47]	logPacidic = 3.86
COC(=O)c1ccc(S(C)(=O)=O)c(CNOC2CCCC2)c1Cl [VIII-48]	logPacidic = 2.93
COC(=O)c1ccc(S(C)(=O)=O)c(CN(C)OC2CCCC2)c1Cl [VIII-49]	logPacidic = 3.48
COC(=O)c1ccc(S(C)(=O)=O)c(CN(OC)C(=O)C(F)(F)F)c1Cl [VIII-50]	logPacidic = 2.60
COC(=O)c1ccc(S(C)(=O)=O)c(CN(OC)C(=O)C(C)C)c1Cl [VIII-51]	logPacidic = 2.21
COC(=O)c1ccc(S(C)(=O)=O)c(CN(OC)C(=O)C2CC2)c1Cl [VIII-52]	logPacidic = 2.02
COC(=O)c1ccc(S(C)(=O)=O)c(CN(CC(=O)N(C)C)OC)c1Cl [VIII-53]	logPacidic = 1.74
COC(=O)c1ccc(S(C)(=O)=O)c(CN(CC2CCOC2)OC)c1Cl (centres unmarked) [VIII-54]	logPacidic = 2.35
CCON(Cc1c(S(C)(=O)=O)ccc(C(=O)OC)c1Cl)CC1CCOC1 (centres unmarked) [VIII-55]	logPacidic = 2.60
COC(=O)c1ccc(S(C)(=O)=O)c(CN(CC2CCOC2)OC2CCCC2)c1Cl (centres unmarked) [VIII-56]	logPacidic = 3.30

Structure (SMILES)	log P (acidic)
COC(=O)c1ccc(S(C)(=O)=O)c(CN(Cc2ccoc2)OC)c1Cl [VIII-57]	logPacidic = 2.91
COC(=O)c1ccc(S(C)(=O)=O)c(CN(OC)C2CCOC2)c1Cl (centres unmarked) [VIII-58]	logPacidic = 2.17
COC(=O)c1ccc(S(C)(=O)=O)c(CN(OC)C2CCCOC2)c1Cl (centres unmarked) [VIII-59]	logPacidic = 2.55
COC(=O)c1ccc(S(C)(=O)=O)c(CN(OC)C2CCOCC2)c1Cl [VIII-60]	logPacidic = 2.38
COCCON(C)Cc1c(S(C)(=O)=O)ccc(C(=O)OC)c1Cl [VIII-61]	logPacidic = 2.26
COC(=O)c1ccc(S(C)(=O)=O)c(CNOCCOc2ccccc2)c1Cl [VIII-62]	logPacidic = 2.93
COC(=O)c1ccc(S(C)(=O)=O)c(CN(C)OCCOc2ccccc2)c1Cl [VIII-63]	logPacidic = 3.37
COC(=O)c1ccc(S(C)(=O)=O)c(CN(C)OCC2CCCO2)c1Cl (centres unmarked) [VIII-64]	logPacidic = 2.51
COC(=O)c1ccc(S(C)(=O)=O)c(CN(C)OCC2CCCCO2)c1Cl (centres unmarked) [VIII-65]	logPacidic = 2.87
COC(=O)c1ccc(Cl)c(CN(C)OC)c1OC [VIII-66]	logPacidic = 2.76
CCN(Cc1c(Cl)ccc(C(=O)OC)c1OC)OC [VIII-67]	logPacidic = 3.43
COC(=O)c1ccc(Cl)c(CN(C)S(C)(=O)=O)c1Cl [VIII-68]	logPacidic = 2.15
COC(=O)c1ccc(S(C)(=O)=O)c(CN(C)S(C)(=O)=O)c1Cl [VIII-69]	logPacidic = 1.65
CCN(Cc1c(Cl)ccc(C(=O)OC)c1OC)S(C)(=O)=O [VIII-71]	logPacidic = 2.38
CCN(Cc1c(S(C)(=O)=O)ccc(C(=O)OC)c1Cl)S(C)(=O)=O [VIII-72]	logPacidic = 1.88
C=CCN(Cc1c(S(C)(=O)=O)ccc(C(=O)OC)c1Cl)S(C)(=O)=O [VIII-73]	logPacidic = 2.03

Same assay, conditions: reversed-phase C18 HPLC column; HPLC reversed-phase C18, 43° C.; acidic range: 0.1% aqueous phosphoric acid, acetonitrile gradient (marked a)); read-out: logP

Structure (SMILES)	chromatographic logP
CCn1ncc(C(=O)c2ccc(Cl)c(OCCNS(=O)(=O)CC)c2Cl)c1O [Example 2, 4-[2,4-dichloro-3-(N-ethylsulphonylaminoethoxy)benzoyl]-1-ethyl-5-hydroxypyrazole]	1.86

Same assay, conditions: reversed-phase C18 HPLC column; HPLC, reversed-phase C 18, 43° C.; mobile phase range not marked; read-out: log P

Structure (SMILES)	chromatographic logP
CCOC(=O)c1ccc(Cl)c(OCCNC(=O)OC(C)(C)C)c1Cl [ethyl 2,4-dichloro-3-[2-[(t-butoxycarbonyl)amino]ethoxy]benzoate]	3.79
CCOC(=O)c1ccc(Cl)c(OCCN)c1Cl [ethyl 3-(2-aminoethoxy)-2,4-dichlorobenzoate]	1.08
